According to the supplement of paper PMC10627819:

Legend:
S. aureus DSM 20231 [1] = experiment: fitness (endpoint OD595 vs no drug) (fraction); higher = more growth
Outline: (§1)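 Each well of a 384-well plate received 30 µl of culture at OD595 0.01, or 55 µl for S. pneumoniae. TSB, LB Lennox or CY served as media at 37 °C. OD595 was taken every 30 min for 14 h and corrected by subtracting the first reading. Fitness is the optical density at stationary-phase entry divided by the robust mean of no-drug controls, capped at 1.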

S. pneumoniae D39V [2] = experiment: Bliss interaction score (quartile over a dose matrix) (fitness difference); higher = more antagonism (negative = synergy)
Outline: (§2)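 Each plate was normalised to the robust mean of its own no-drug wells, using OD595 at entry into stationary phase, with values capped at 1. This normalised growth is the fitness value. The Bliss score is the difference between observed and product-expected fitness, with single-drug fitness inferred from the combination data and quartiles taken over technical, biological and donor/recipient replicates.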

S. aureus Newman = experiment: as above
Outline: as §2

S. aureus DSM 20231 [3] = experiment: as above
Outline: as §2

B. subtilis 168 [4] = experiment: as above
Outline: as §2

S. pneumoniae D39V [5] = experiment: fitness (endpoint OD595 vs no drug) (fraction); higher = more growth
Outline: as §1

B. subtilis 168 [6] = experiment: as above
Outline: as §1
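Throughout, for Bliss interaction score (quartile over a dose matrix): first quartile when negative (synergy) and third quartile when positive (antagonism).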

CC1(C)S[C@@H]2[C@H](NC(=O)[C@H](N)c3ccc(O)cc3)C(=O)N2[C@H]1C(=O)O [Amoxicillin] + COc1cc(Cc2cnc(N)nc2N)cc(OC)c1OC [Trimethoprim]
fitness, S. aureus DSM 20231 [1]
Details	partner 0.125 µg/mL	partner 0.25 µg/mL	partner 0.5 µg/mL	partner 1 µg/mL
first compound 0.0625 µg/mL	0.511	0.401	0.0356	0.0213
first compound 0.125 µg/mL	0.189	0.11	0.0261	0.0335
first compound 0.25 µg/mL	0.0479	0.037	0.033	0.0125

S. aureus DSM 20231 [1], first compound 0.5 µg/mL, one replicate
Details	fitness
partner 0.125 µg/mL	0.0327
partner 0.25 µg/mL	0.0355
partner 0.5 µg/mL	0.0427

Details	Bliss interaction score
B. subtilis 168 [4]	-0.139
S. aureus DSM 20231 [3]	-0.0714
S. aureus Newman	0.0661
S. pneumoniae D39V [2]	0.174

CN(C)C(=O)C(CCN1CCC(O)(c2ccc(Cl)cc2)CC1)(c1ccccc1)c1ccccc1 [Loperamide] + CN[C@@H]1[C@H](O)[C@H](NC)[C@H]2O[C@@]3(O)C(=O)C[C@@H](C)O[C@H]3O[C@@H]2[C@H]1O [Spectinomycin]
fitness
Details	partner 2 µg/mL	partner 4 µg/mL	partner 8 µg/mL	partner 16 µg/mL
B. subtilis 168 [6], first compound 25 µg/mL	0.812	0.78	0.566	–
S. pneumoniae D39V [5], first compound 17.14 µg/mL	–	0.983	0.974	0.93
S. pneumoniae D39V [5], first compound 34.28 µg/mL	–	0.994	0.909	0.929

fitness, S. pneumoniae D39V [5], one replicate
Details	first compound 20 µg/mL	first compound 40 µg/mL	first compound 68.57 µg/mL	first compound 80 µg/mL
partner 4 µg/mL	≥ 1	≥ 1	≥ 1	0.977
partner 8 µg/mL	≥ 1	≥ 1	≥ 1	0.966
partner 16 µg/mL	–	–	0.983	–

Details	Bliss interaction score
B. subtilis 168 [4]	0.354
S. aureus DSM 20231 [3]	0.104
S. aureus Newman	-0.103
S. pneumoniae D39V [2]	0.126

C[C@H]1COc2c(N3CCN(C)CC3)c(F)cc3c(=O)c(C(=O)O)cn1c23 [Levofloxacin] + C[n+]1ccc(-c2cc[n+](C)cc2)cc1 [Paraquat]
fitness
Details	first compound 0.0312 µg/mL	first compound 0.0625 µg/mL	first compound 0.125 µg/mL	first compound 0.1725 µg/mL	first compound 0.345 µg/mL	first compound 0.69 µg/mL
B. subtilis 168 [6], partner 1.25 µg/mL	0.0392	0.0443	0.0452	–	–	–
B. subtilis 168 [6], partner 2.5 µg/mL	0.0272	0.0296	0.0268	–	–	–
B. subtilis 168 [6], partner 5 µg/mL	0.0508	0.0462	0.0464	–	–	–
S. pneumoniae D39V [5], partner 1.5 µg/mL	–	–	–	0.977	0.91	0.602
S. pneumoniae D39V [5], partner 3 µg/mL	–	–	–	0.974	0.919	0.647
S. pneumoniae D39V [5], partner 6 µg/mL	–	–	–	0.972	0.849	0.569

fitness, one replicate
Details	first compound 0.001 µg/mL	first compound 0.002 µg/mL	first compound 0.0039 µg/mL	first compound 0.2 µg/mL	first compound 0.4 µg/mL	first compound 0.8 µg/mL
B. subtilis 168 [6], partner 1.25 µg/mL	0.91	0.941	0.829	–	–	–
B. subtilis 168 [6], partner 2.5 µg/mL	0.966	0.876	0.823	–	–	–
B. subtilis 168 [6], partner 5 µg/mL	0.889	0.778	0.766	–	–	–
S. pneumoniae D39V [5], partner 1.5 µg/mL	–	–	–	0.966	0.911	0.615
S. pneumoniae D39V [5], partner 3 µg/mL	–	–	–	0.983	0.939	0.684
S. pneumoniae D39V [5], partner 6 µg/mL	–	–	–	0.994	0.952	0.696

Details	Bliss interaction score
B. subtilis 168 [4]	-0.0255
S. aureus DSM 20231 [3]	-0.0517
S. aureus Newman	-0.0586
S. pneumoniae D39V [2]	0.0861

CN(C)C(=O)C(CCN1CCC(O)(c2ccc(Cl)cc2)CC1)(c1ccccc1)c1ccccc1 [Loperamide] + Cc1cc(NS(=O)(=O)c2ccc(N)cc2)no1 [Sulfamethoxazol]
fitness
Details	partner 1 µg/mL	partner 2 µg/mL	partner 4 µg/mL
B. subtilis 168 [6], first compound 25 µg/mL	–	–	0.857
B. subtilis 168 [6], first compound 100 µg/mL	–	0.0238	0.156
S. pneumoniae D39V [5], first compound 17.14 µg/mL	0.92	0.936	0.989
S. pneumoniae D39V [5], first compound 34.28 µg/mL	0.953	0.95	0.998

fitness, one replicate
Details	first compound 20 µg/mL	first compound 25 µg/mL	first compound 40 µg/mL	first compound 50 µg/mL	first compound 68.57 µg/mL	first compound 80 µg/mL	first compound 100 µg/mL
B. subtilis 168 [6], partner 0.5 µg/mL	–	0.0806	–	0.009	–	–	0.0009
S. pneumoniae D39V [5], partner 1 µg/mL	≥ 1	–	≥ 1	–	0.967	0.249	–
S. pneumoniae D39V [5], partner 2 µg/mL	≥ 1	–	≥ 1	–	0.968	0.89	–
S. pneumoniae D39V [5], partner 4 µg/mL	0.941	–	0.942	–	≥ 1	0.752	–

Details	Bliss interaction score
B. subtilis 168 [4]	-0.178
S. aureus DSM 20231 [3]	-0.143
S. aureus Newman	0.0631
S. pneumoniae D39V [2]	0.0594
